Experiment: Inhibition of glycogen phosphorylase (unknown origin) by INPHARMA method
Parameters: species or system Homo sapiens

SMILES | IC50
CN1CC[C@H](c2c(O)cc(O)c3c(=O)cc(-c4ccccc4Cl)oc23)[C@H](O)C1 [ALVOCIDIB] | 1 µM
Cn1c(=O)c2c(ncn2C)n(C)c1=O [CAFFEINE] | 100 µM

Reference: ChEMBL document CHEMBL3217475, “INPHARMA-based identification of ligand binding site in fragment-based drug design” (Medchemcomm, 2012)
